Reference: ChEMBL document CHEMBL5385939, “Novel ether derivatives of 11-azaartemisinins with high order antimalarial activity against multidrug-resistant Plasmodium yoelii in Swiss mice” (2024)
Calls of active or inactive are those of the source. The calls are words filed in the database; no cut-off is given here.

Experiments:
Plasmodium yoelii [1] = assay: Antimalarial activity against multidrug resistant Plasmodium yoelii infected in swiss mouse assessed as reduction in parasitaemia at 24 mg/kg, po administered for 4 days; type: functional; set-up: scale not given: the % may be the effect or the level left; conditions: time 4 day
Plasmodium yoelii [2] = assay: Antimalarial activity against multidrug resistant Plasmodium yoelii infected in swiss mouse assessed as reduction in parasitaemia at 12 mg/kg, IM administered for 4 days; type: functional; set-up: scale not given: the % may be the effect or the level left; conditions: time 4 day
Plasmodium yoelii [3] = assay: Antimalarial activity against multidrug resistant Plasmodium yoelii infected in swiss mouse assessed as reduction in parasitaemia at 48 mg/kg, IM administered for 4 days; type: functional; set-up: scale not given: the % may be the effect or the level left; conditions: time 4 day
Plasmodium yoelii [4] = assay: Antimalarial activity against multidrug resistant Plasmodium yoelii infected in swiss mouse assessed as increase in survival time at 48 mg/kg, IM administered for 4 days and measured on day 28; type: functional, organism-based; conditions: time 28.0 day
Plasmodium yoelii [5] = assay: Antimalarial activity against multidrug resistant Plasmodium yoelii infected in swiss mouse assessed as reduction in parasitaemia at 6 mg/kg, IM administered for 4 days; type: functional; set-up: scale not given: the % may be the effect or the level left; conditions: time 4 day
Plasmodium yoelii [6] = assay: Antimalarial activity against multidrug resistant Plasmodium yoelii infected in swiss mouse assessed as increase in survival time at 12 mg/kg, IM administered for 4 days and measured on day 28; type: functional, organism-based; conditions: time 28.0 day
Plasmodium yoelii [7] = assay: Antimalarial activity against multidrug resistant Plasmodium yoelii infected in swiss mouse assessed as reduction in parasitaemia at 12 mg/kg, po administered for 4 days; type: functional; set-up: scale not given: the % may be the effect or the level left; conditions: time 4 day
Plasmodium yoelii [8] = assay: Antimalarial activity against multidrug resistant Plasmodium yoelii infected in swiss mouse assessed as reduction in parasitaemia at 24 mg/kg, IM administered for 4 days; type: functional; set-up: scale not given: the % may be the effect or the level left; conditions: time 4 day
Plasmodium yoelii [9] = assay: Antimalarial activity against multidrug resistant Plasmodium yoelii infected in swiss mouse assessed as increase in survival time at 12 mg/kg, po administered for 4 days and measured on day 28; type: functional, organism-based; conditions: time 28.0 day
Plasmodium yoelii [10] = assay: Antimalarial activity against multidrug resistant Plasmodium yoelii infected in swiss mouse assessed as increase in survival time at 24 mg/kg, IM administered for 4 days and measured on day 28; type: functional, organism-based; conditions: time 28.0 day
Plasmodium yoelii [11] = assay: Antimalarial activity against multidrug resistant Plasmodium yoelii infected in swiss mouse assessed as increase in survival time at 24 mg/kg, po administered for 4 days and measured on day 28; type: functional, organism-based; conditions: time 28.0 day
Plasmodium yoelii [12] = assay: Antimalarial activity against multidrug resistant Plasmodium yoelii infected in swiss mouse assessed as reduction in parasitaemia at 48 mg/kg, po administered for 4 days; type: functional; set-up: scale not given: the % may be the effect or the level left; conditions: time 4 day
Plasmodium yoelii [13] = assay: Antimalarial activity against multidrug resistant Plasmodium yoelii infected in swiss mouse assessed as increase in survival time at 48 mg/kg, po administered for 4 days and measured on day 28; type: functional, organism-based; conditions: time 28.0 day
Plasmodium yoelii [14] = assay: Antimalarial activity against multidrug resistant Plasmodium yoelii infected in swiss mouse assessed as increase in survival time at 6 mg/kg, IM administered for 4 days and measured on day 28; type: functional, organism-based; conditions: time 28.0 day
Plasmodium yoelii [15] = assay: Antimalarial activity against multidrug resistant Plasmodium yoelii infected in swiss mouse assessed as reduction in parasitaemia at 3 mg/kg, IM administered for 4 days; type: functional; set-up: scale not given: the % may be the effect or the level left; conditions: time 4 day
Plasmodium yoelii [16] = assay: Antimalarial activity against multidrug resistant Plasmodium yoelii infected in swiss mouse assessed as increase in survival time at 3 mg/kg, IM administered for 4 days and measured on day 28; type: functional, organism-based; conditions: time 28.0 day

Structure (SMILES)	Activity (Plasmodium yoelii [1]) [%]	Activity (Plasmodium yoelii [2]) [%]	Activity (Plasmodium yoelii [5]) [%]	Activity (Plasmodium yoelii [6])	also measured
C[C@@H]1CC[C@H]2[C@@H](C)C(=O)N(OCc3ccc([N+](=O)[O-])cc3)[C@@H]3O[C@@]4(C)CC[C@@H]1[C@@]23OO4	100	100	–	–	–
C[C@@H]1CC[C@H]2[C@@H](C)C(=O)N(O)[C@@H]3O[C@@]4(C)CC[C@@H]1[C@@]23OO4	–	–	–	–	Activity (Plasmodium yoelii [3]): 78%; Activity (Plasmodium yoelii [4]): inactive
C[C@@H]1CC[C@H]2[C@@H](C)C(=O)N(CCOCCCc3ccccc3)[C@@H]3O[C@]4(C)CC[C@@H]1[C@@]23OO4	100	91	100	inactive	–
C[C@@H]1CC[C@H]2[C@@H](C)C(=O)N(N)[C@@H]3O[C@@]4(C)CC[C@@H]1[C@@]23OO4	100	–	–	–	Activity (Plasmodium yoelii [7]): 99%; Activity (Plasmodium yoelii [8]): 100%; Activity (Plasmodium yoelii [9]): inactive; Activity (Plasmodium yoelii [10]): inactive
C[C@@H]1CC[C@H]2[C@@H](C)C(=O)N(CCOCc3ccccc3F)[C@@H]3O[C@@]4(C)CC[C@@H]1[C@@]23OO4	100	100	–	–	–
C[C@@H]1CC[C@H]2[C@@H](C)C(=O)N(OCCCc3ccccc3)[C@@H]3O[C@@]4(C)CC[C@@H]1[C@@]23OO4	94	81	–	inactive	Activity (Plasmodium yoelii [11]): inactive
C[C@@H]1CC[C@H]2[C@@H](C)C(=O)N(NCc3ccc(Br)cc3)[C@@H]3O[C@@]4(C)CC[C@@H]1[C@@]23OO4	100	100	–	–	–
C[C@@H]1CC[C@H]2[C@@H](C)C(=O)N(CCO)[C@@H]3O[C@@]4(C)CC[C@@H]1[C@@]23OO4	10	–	–	–	Activity (Plasmodium yoelii [12]): 100%; Activity (Plasmodium yoelii [3]): 100%; Activity (Plasmodium yoelii [13]): inactive
C[C@@H]1CC[C@H]2[C@@H](C)C(=O)N(CCOCc3ccc(-c4ccccc4)cc3)[C@@H]3O[C@@]4(C)CC[C@@H]1[C@@]23OO4	100	100	–	–	–
C[C@@H]1CC[C@H]2[C@@H](C)C(=O)N(CCOCc3ccc([N+](=O)[O-])cc3)[C@@H]3O[C@@]4(C)CC[C@@H]1[C@@]23OO4	90	100	100	Active	Activity (Plasmodium yoelii [11]): inactive; Activity (Plasmodium yoelii [14]): inactive
CCOC1O[C@@H]2O[C@@]3(C)CC[C@H]4[C@H](C)CC[C@@H]([C@H]1C)[C@@]24OO3 (stereo partly specified)	100	100	100	Active	Activity (Plasmodium yoelii [15]): 100%; Activity (Plasmodium yoelii [13]): Active; Activity (Plasmodium yoelii [14]): Active; Activity (Plasmodium yoelii [16]): inactive
C[C@@H]1CC[C@H]2[C@@H](C)C(=O)N(CCOCc3ccccc3)[C@@H]3O[C@]4(C)CC[C@@H]1[C@@]23OO4	100	100	100	Active	Activity (Plasmodium yoelii [14]): inactive
